Ten compounds from ChEMBL document CHEMBL2057195, “Design and synthesis of a novel pyrrolidinyl pyrido pyrimidinone derivative as a potent inhibitor of PI3Kα and mTOR” (Bioorg Med Chem Lett, 2012) can be followed below.

For series [1], the target named is Serine/threonine-protein kinase mTOR (Homo sapiens, UniProt P42345).
Series [2] in a line: physchem. The settings on record: buffer, pH 6.5.
Description: Apparent kinetic solubility of the compound at pH 6.5
The target in series [3] is Phosphatidylinositol 4,5-bisphosphate 3-kinase catalytic subunit alpha isoform (Mus musculus, UniProt P42337).
Description: Inhibition of mouse PI3Kalpha
Series [4] relates to Liver microsomes. As to the kind of experiment: Drug metabolism in human liver microsomes assessed as CYP450-mediated GSH adduct formation in presence of GSH. The class given is ADME, Microsome.
The subject of series [5] is Liver microsomes. Description: Drug metabolism in human liver microsomes assessed as CYP450-mediated 4-(2-amino-4-methyl-7-oxo-6-(1H-pyrazol-4-yl)pyrido[2,3-d]pyrimidin-8(7H)-ylamino)butanoic acid formation. Type of series: ADME, Microsome.
Series [6] deals with Liver microsomes. Description: Drug metabolism in human liver microsomes assessed as CYP450-mediated GSH adduct formation in absence of GSH. The class given is ADME, Microsome.
Series [7] can be described thus: Oral bioavailability in rat at 5 mg/kg. The settings on record: in vivo. The class given is ADME, organism-based.
The nature of series [8]: Cmax in rat at 5 mg/kg, po. Type of series: ADME, organism-based. Set-up: dose 5 mg/kg, route oral. The conditions noted are these: in vivo.
Series [9] can be described thus: Half life in rat at 2 mg/kg, iv. The arrangement: dose 2 mg/kg, route intravenous. The settings on record: in vivo. Type of series: ADME, organism-based.
Series [10] can be described thus: Clearance in rat at 2 mg/kg, iv. The class given is ADME, organism-based. Set-up: dose 2 mg/kg, route intravenous. The conditions noted are these: in vivo.
Series [11] is described as follows: Volume of distribution at steady state in rat at 2 mg/kg, iv. Type of series: ADME, organism-based. The conditions noted are these: in vivo, read-out: Vdss. Set-up: dose 2 mg/kg, route intravenous.
Series [12] in a line: Clearance in rat liver microsomes. The settings on record: read-out: CLH. Type of series: ADME, Microsome.

≈ marks a conversion by molar mass, not a printed value.

Chain of Phosphatidylinositol 4,5-bisphosphate 3-kinase catalytic subunit alpha isoform (P42337 whole entry, canonical isoform): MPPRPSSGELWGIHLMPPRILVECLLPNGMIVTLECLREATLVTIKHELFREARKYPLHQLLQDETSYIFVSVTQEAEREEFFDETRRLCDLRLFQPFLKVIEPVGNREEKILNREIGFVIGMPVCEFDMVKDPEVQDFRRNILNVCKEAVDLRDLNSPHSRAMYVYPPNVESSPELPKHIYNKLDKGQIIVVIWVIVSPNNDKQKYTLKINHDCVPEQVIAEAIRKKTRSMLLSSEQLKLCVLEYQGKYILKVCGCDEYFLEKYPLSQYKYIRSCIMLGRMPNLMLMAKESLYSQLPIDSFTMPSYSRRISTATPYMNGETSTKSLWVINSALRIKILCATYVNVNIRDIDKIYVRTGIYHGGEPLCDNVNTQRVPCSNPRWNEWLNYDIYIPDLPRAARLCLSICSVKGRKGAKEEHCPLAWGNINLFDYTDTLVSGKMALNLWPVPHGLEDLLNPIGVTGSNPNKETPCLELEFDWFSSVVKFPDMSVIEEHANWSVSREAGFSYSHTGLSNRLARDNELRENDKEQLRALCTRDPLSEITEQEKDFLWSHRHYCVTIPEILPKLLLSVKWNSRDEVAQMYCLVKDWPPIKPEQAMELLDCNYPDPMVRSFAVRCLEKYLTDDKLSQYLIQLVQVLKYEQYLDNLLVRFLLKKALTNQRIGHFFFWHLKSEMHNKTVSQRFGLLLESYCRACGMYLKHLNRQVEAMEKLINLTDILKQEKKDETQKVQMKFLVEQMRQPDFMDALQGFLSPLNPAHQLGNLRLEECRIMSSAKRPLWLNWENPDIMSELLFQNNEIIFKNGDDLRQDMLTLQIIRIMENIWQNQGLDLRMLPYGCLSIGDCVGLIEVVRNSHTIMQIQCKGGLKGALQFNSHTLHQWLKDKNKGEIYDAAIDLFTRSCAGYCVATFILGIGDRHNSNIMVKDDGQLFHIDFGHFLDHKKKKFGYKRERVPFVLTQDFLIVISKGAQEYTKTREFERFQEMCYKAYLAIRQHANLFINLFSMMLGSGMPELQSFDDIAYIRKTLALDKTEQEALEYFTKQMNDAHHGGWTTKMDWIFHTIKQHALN

In the case of `COc1ccc(-c2cc3c(C)nc(N)nc3n(C3CCC3)c2=O)cn1`, in series [1], the inhibition constant Ki was 76.4 nM. In series [2], this compound showed a kinetic solubility of 11.1 µM (≈ 3.74 µg/mL).
Regarding `Cc1nc(N)nc2c1cc(-c1cn[nH]c1)c(=O)n2C1CCC1`, the values for the inhibitory constant (Ki) in series [3] and in [1] were 7 nM and 51.2 nM, respectively. This compound also had a solubility (kinetic) in series [2] of 13 µM (≈ 3.85 µg/mL).
In the case of `Cc1nc(N)nc2c1cc(-c1cn[nH]c1)c(=O)n2N1CCCC1`, the Drug metabolism result in series [4] was “Not Active”; in [5], “Active”; in [6] it was “Not Active”. The compound further registered a bioavailability in series [7] of 52%. The highest concentration (Cmax) in series [8] is 0.144 ng/mL. Moreover, in series [9], the half-life is 54 min. The compound also registered a clearance in [10] of 36.3 mL/min/kg. The Vd in series [11] was 2.9 L/kg. The figures for the Ki in series [3] and in series [1] were 12.5 nM and 10.6 nM, respectively. The same compound came in with a solubility (kinetic) in series [2] of 43.1 µM (≈ 13.4 µg/mL).
Compound `COc1ccc(-c2cc3c(C)nc(N)nc3n(C3CC3)c2=O)cn1` came in with a Ki in series [3] of 26 nM. This compound also yielded a kinetic solubility in series [2] of 16.2 µM (≈ 5.24 µg/mL).
In the case of `COc1ccc(-c2cc3c(C)nc(N)nc3n(C3CCCC3)c2=O)cn1`, the inhibition constant Ki in series [3] stood at 1.56 nM; in [1], 142 nM. The same compound yielded a solubility (kinetic) in [2] of 3.94 µM (≈ 1.38 µg/mL).
Taken in the same sequence, the figures for `Cc1nc(N)nc2c1cc(-c1cn[nH]c1)c(=O)n2C1CC1` were 36 nM, 190 nM and 16.7 µM (≈ 4.71 µg/mL).
For `Cc1nc(N)nc2c1cc(-c1cn[nH]c1)c(=O)n2C(C)C`, the microsomal CLint in series [12] worked out at 349 µL/min/mg. Moreover, the inhibition constant Ki in [3] amounted to 13.5 nM; in series [1] it was 23.5 nM. The kinetic solubility in series [2] worked out at 43.4 µM (≈ 12.3 µg/mL).
For the compound `COc1ccc(-c2cc3c(C)nc(N)nc3n(N3CCCC3)c2=O)cn1`, in [3], the Ki amounted to 10 nM.
Still for that read-out and setting: to `Cc1nc(N)nc2c1cc(-c1cn[nH]c1)c(=O)n2NCC(C)C` belongs 827 nM.
For `CCN(CC)n1c(=O)c(-c2cn[nH]c2)cc2c(C)nc(N)nc21`, the affinity in [3], expressed as Ki, was 138 nM. In addition, the kinetic solubility in series [2] stood at 434 µM (≈ 136 µg/mL).
